Where two headings read alike, the source gives them in different places.
What was measured:
[1] = system: subcutaneous fat-derived stein cells; settings: day 7 of differentiation
Protocol: (§1) Onto a 96-well plate (manufactured by IWAKI), 2 μL of FBS-free DMEM containing 1.2% by weight (final concentration) of the defibered collagen component, 6 mg/mL (final concentration) fibrinogen, 3 U/mL (final concentration) thrombin, and 5×10^6 cells/mL of subcutaneous fat-derived stein cells was seeded and incubated for 15 minutes, 200 μL of DMEM culture medium was then added, and culture was performed for 48 hours.
The three-dimensional tissue constructs obtained were each subjected to fat staining with Nile red, and Hoechst staining for staining nuclei. In the same manner as in Production Example 1, fluorescence intensity for fat staining (Nile red) relative to fluorescence intensity for nucleic staining (Hoechst) was calculated, and increase rates of fluorescence intensity with reference to that of the three-dimensional tissue constructs cultured in DMEM culture medium containing no ALK5 inhibitor were calculated (three samples were used for each conditions).

[2] = system: subcutaneous fat-derived stein cells; settings: for adipogenesis (fat staining with Nile red): FIG. 5
Protocol: as §1

Cc1cccc(-c2n[nH]cc2-c2ccc3ncccc3n2)n1 [ALK5 inhibitor, 2-[3-(6-methyl-2-pyridinyl)-1H-pyrazol-4-yl]-1,5-naphthyridine]
increase in fluorescence intensity (Nile red relative to Hoechst) ([1]; 5 μM or more of the ALK5 inhibitor in DMEM with seven fatty acids each 50 μM, vs no ALK5 inhibitor, FIG. 4): ≥ 3 fold | adipogenesis (fat staining with Nile red) ([1]; ALK5 inhibitor 1, 5 or 10 μM in DMEM with seven fatty acids each 50 μM, vs medium containing no ALK5 inhibitor, FIG. 3): had proceeded more | differentiation of fat-derived stein cells into mature adipocytes ([1]; addition of the ALK5 inhibitor to DMEM with seven fatty acids each 50 μM): promoted | adipogenesis (fat staining with Nile red) ([2]; ALK5 inhibitor 5 μM with seven fatty acids each in 50 IIM, day 3, day 7 and day 14 of differentiation): had proceeded | difference in increase rates of fluorescence intensity between day 7 and day 14 of culture ([2]; ALK5 inhibitor 5 μM, FIG. 6): No large difference | adipogenesis (fat staining with Nile red) ([2]; ALK5 inhibitor 5 μM, day 7 of culture and day 14 of culture (in particular)): had more proceeded | increase in fluorescence intensity vs medium containing no ALK5 inhibitor ([2]; ALK5 inhibitor 5 μM, day 7 of culture and day 14 of culture, FIG. 6): significant
